Data reported in PMC7347136 (PLoS ONE, 2020).
Read-outs that look alike come from different tables or passages of the source.

Assays:
184A1 = test: Resazurin reduction cell viability assay; format: cell-based, human
Protocol: (§1) Solid tumor cell lines were seeded in 100 μl medium into 96-well plates at an appropriate cell number determined by a cell dilution assay (Cal51–2000 cells/well; Colo205, MCF10A and 184A1–3000 cells/well and MDA-MB-468, HCC1954–4000 cells/well). AML suspension cells were seeded in 96-well plates at approximately 3000 cells per well. Cells were incubated overnight at 37°C, 5% CO2. The following day, 100 μl fresh medium containing increasing concentrations of appropriate compound was added and the cells were incubated for up to 72 h at 37°C, 5% CO2. For pulse treatment of solid (adherent) tumor cell lines, medium was aspirated and replaced with fresh drug-free medium. For pulse treatment of suspension lines, plates were centrifuged at 478 xg for 5 min at the end of the incubation period with compound, medium containing compound was carefully aspirated and replaced with fresh compound-free medium. A total of 72 h after the start of treatment, 20 μl of a 10X stock of resazurin sodium salt (Sigma-Aldrich, Dorset, UK) prepared in medium was added to the cells and incubated for up to 3 h. […] was measured on the Wallac Victor plate reader (Cambridge, UK) at 544–595 nm. IC50/70/90 calculations were determined in XLFit.

A2780 = test: Resazurin reduction cell viability assay; format: cell-based, human; conditions: 6 h pulse
Protocol: as §1

Colo205 = test: Resazurin reduction cell viability assay; format: cell-based, human; conditions: Homo sapiens, COLO 205, 72 h, 72 h continuous treatment; read-out: Colo205 IC50 ± SD
Protocol: as §1

MCF10A = test: Resazurin reduction cell viability assay; format: cell-based, human
Protocol: as §1

MV4-11 = test: Resazurin reduction cell viability assay; format: cell-based, human
Protocol: as §1

PC3 = test: Resazurin reduction cell viability assay; format: cell-based, human
Protocol: as §1

[1] = test system: subcutaneous EOL-1 tumors; test: EOL-1 human eosinophilic leukemia xenograft model; format: in vivo, SCID mice; conditions: for tumor growth inhibition (TGI): Day 19; for median TGI: day 9
Protocol: Female athymic CB-17 SCID (Harlan Sprague-Dawley) mice between 6–7 weeks of age weighing approximately 22 grams were housed in a 12-h light-dark cycle at 70–74°F (21–23°C) and 40–60% humidity. Animals were fed water ad libitum (reverse osmosis, 2 ppm Cl2) and an irradiated standard rodent diet (Teklad 2919) consisting of 19% protein, 9% fat, and 4% fiber. Mice were injected subcutaneously into the right flank with 1x10^7 EOL-1 cells in 100 μl of a 1:1 HBSS:Matrigel solution. When tumors reached approximately 125–250 mm^3, animals were matched by tumor volume and then randomized into treatment and control groups before dosing was initiated. […] Cytarabine, also known as cytosine arabinoside (AraC), was administered by daily ip injection for 5 days only. Agent toxicity was assessed by effects on body weight and clinical signs. Animals were weighed twice weekly using a digital scale (Ohaus SP601). Beginning on Day 0, tumor dimensions were measured twice weekly by digital caliper (Fowler Ultra-Cal IV); tumor volume was calculated using the formula TV = width^2 x length x 0.52. […] Statistical differences in tumor volume were determined using a two-tailed One-Way Analysis of Variance (ANOVA) followed by the Dunnett’s multiple comparisons test comparing treated groups with control. For animal welfare the following methods were used: (a) methods of sacrifice: isoflurane anesthesia followed by cervical dislocation; (b) methods of anesthesia and/or analgesia: isoflurane anesthesia and (c) efforts to alleviate suffering: carprofen if animal veterinarian decides necessary or euthanasia.

subcutaneous HL60 tumors = test: HL-60 human promyelocytic leukemia xenograft model; format: in vivo, athymic NCr-nu/nu mice
Text: Five-week-old female athymic NCr-nu/nu mice were purchased from Harlan Sprague-Dawley (Prattville, AL). The animals were housed in microisolator cages, with up to five animals per cage in a 12-h light/dark cycle. The animals received filtered water and sterilized rodent diet (Harlan-Teklad TD8656) ad libitum. Each mouse was implanted subcutaneously near the right flank with ten million HL-60 cells using a 23-gauge needle and allowed to grow. Tumors were allowed to reach 75–144 mm^3 in size before treatment initiation. […] The %TGI values were calculated and statistical analyses performed as above.

HEL = test: Viacount viability assay by flow cytometry; format: cell-based, human; conditions: 6 h pulse, up to 2 μM, assessed at 48 h
Protocol: (§2) AML cells were seeded at 5 x 10^5 cells/ml in a 6-well plate and incubated with the test compound or vehicle control (DMSO) for 6, 8 or 10 h. At the end of the incubation period, cells were collected into Falcon tubes, pelleted via centrifugation (5 min at 478 x g), and medium containing compound was aspirated. The cells were resuspended in 4 ml of fresh compound-free medium and returned to the 6-well plates for further incubation. Following compound addition, 100 μl (at 24 h), 75 μl (at 48 h), 50 μl (at 72 h) or 30 μl (at 96 h) of a homogeneous suspension of cells were removed from the culture, made up to 100 μl with medium and mixed with 100 μl Guava Viacount reagent (Millipore, Nottingham, UK) in a 96-well plate. Samples were incubated for 20 min in the dark, mixed and then analyzed by GuavaSoft 2.6 software on the Guava Easycyte 8HT (Millipore). Guava Viacount software was used to gate and calculate the proportion of viable and dead cells in the population.

KG-1 = test: Viacount viability assay by flow cytometry; format: cell-based, human; conditions: 6 h pulse, up to 2 μM, assessed at 48 h
Protocol: as §2

Kasumi-1 cells = test: Viacount viability assay by flow cytometry; format: cell-based, human; conditions: 6 h pulse, 0.5 or 1.0 μM, assessed at 24 h
Protocol: as §2

sensitive AML cell lines = test: Viacount viability assay by flow cytometry; format: cell-based; conditions: Homo sapiens, 6 h pulse, assessed at 48 h, read-out: non-viable cells
Protocol: as §2

H23 = test: Resazurin reduction cell viability assay; format: cell-based, human; conditions: 6 h pulse
[2] = 40 mg/kg oral qd x 5 for 2 weeks
[3] = 55 mg/kg oral qd x 5 for 2 weeks

CC[C@H](Nc1nc(NCc2cnc(C)cc2C)c2ncn(C(C)C)c2n1)[C@@H](C)O [Fadraciclib, 2-pentanol, 3-[[6-[[(4,6-dimethyl-3-pyridinyl)methyl]amino]-9-(1-methylethyl)-9Hpurin-2-yl]amino]-, (2R,3S)]
IC50 (184A1; Homo sapiens, 184A1, 72 h, 184A1, continuous 72 h, read-out: continuous IC50 ± SD): 250 ± 10 nM
IC50 (184A1; Homo sapiens, 184A1, read-out: 8 h pulse IC50 ± SD, 184A1 (non-malignant), 8 h pulse, read at 72 h): 3900 nM
IC50 (184A1; read-out: 8 h pulse IC50 ± SD, 184A1 (non-malignant), 8 h pulse, read at 72 h): 3870 ± 2100 nM
IC50, short pulse (A2780): submicromolar
IC50 (Colo205): 310 nM
IC50 (MCF10A; Homo sapiens, MCF-10A, 72 h, MCF10A, continuous 72 h, read-out: continuous IC50 ± SD): 400 ± 30 nM
IC50 (MCF10A; Homo sapiens, MCF-10A, read-out: 8 h pulse IC50 ± SD, MCF10A (non-malignant), 8 h pulse, read at 72 h): 3900 nM
IC50 (MCF10A; read-out: 8 h pulse IC50 ± SD, MCF10A (non-malignant), 8 h pulse, read at 72 h): 3890 ± 1040 nM
IC50 (MV4-11; Homo sapiens, MV4-11, 72 h, MV4-11, 72 h continuous, read-out: 72 h continuous IC50 ± SD): 260 ± 80 nM
IC50 (MV4-11; Homo sapiens, MV4-11, read-out: 6 h pulse IC50 ± SD, MV4-11, 6 h pulse then 66 h release): 500 nM
IC90 (MV4-11; Homo sapiens, MV4-11, 6 h pulse then 66 h release): 920 nM
IC50 (MV4-11; read-out: 6 h pulse IC50 ± SD, MV4-11, 6 h pulse then 66 h release): 510 ± 40 nM
sensitivity, 6 h pulse versus continuous 72 h (PC3): sensitive to fadraciclib only after more prolonged treatment
tumor growth inhibition (TGI) [1, 2]: 97%
median TGI [1, 2]: 95%
transient body weight loss ([1]; 55 mg/kg oral): 2%
tumor growth inhibition (TGI) [1, 3]: 100%
median TGI [1, 3]: 97%
mean body weight loss (subcutaneous HL60 tumors; 70 mg/kg oral (highest dose)): 8%
tumor growth delay T-C (subcutaneous HL60 tumors; 70 mg/kg oral, 5 days on/2 days off, 2 cycles): > 12.6 days
TGI (subcutaneous HL60 tumors; 70 mg/kg oral, Day 11): 90%
tumor regression (subcutaneous HL60 tumors; 70 mg/kg oral, groups of 10 animals): Two animals achieved tumor regression and one was determined to be tumor-free
apoptosis (non-viable cells) (HEL): no appreciable increase in apoptosis
apoptosis (non-viable cells) (KG-1): approximately 50%
cells induced into apoptosis (dead cells) (Kasumi-1 cells): up to 80%
cytotoxicity at 1 µM (sensitive AML cell lines): ~100%
IC50, short pulse (H23): submicromolar
